For the experiment, the system named is CAR T cells. Nature of the experiment: Proliferation of CAR T cells co-cultured with antigen-relevant target cells, treated with exogenous VIP and/or VIPR antagonist. It is filed as cell-based. As to the method:
Experiments were performed to determine whether antigen-stimulation increases VPAC1+ CAR T cells and VIPR antagonism enhances CAR T cell proliferation in the presence of VIP. CAR T cells were co-cultured alone or with antigen-relevant or antigen-irrelevant […] for 24 hrs. VPAC1 and VPAC2 expression was evaluated via flow cytometry. […] CAR T cells co-cultured with antigen-relevant target cells were treated with exogenous VIP and/or VIPR antagonist. Proliferation of CAR T cells is suppressed by VIP and rescued by exogenous VIPR antagonist (FIGS. 2A-2C).

As for vasoactive intestinal peptide [VIP], the “Proliferation of CAR T cells” value is “suppressed”.

These data come from patent publication US20250144138A1, “Chimeric Antigen Receptor Therapies and Vasoactive Intestinal Peptide Receptor Antagonists” (Emory University, priority 2021, published 2025).
